In US20260022142A1, “MACROCYCLIC IMMUNOMODULATORS” (Bristol-Myers Squibb Company, priority 2022, published 2026):
pIC50: −log10 of the molar value. Bridge positions count the residues as written; N and C are the ends. Square brackets hold non-standard residues; d marks the D form. Peptide text beside a SMILES is read from it. * marks the point of attachment. ξ: configuration not given here. Bip = N[C@@H](Cc1ccc(-c2ccccc2)cc1)C(=O)O; Phe(3-Me) = Cc1cccc(C[C@H](N)C(=O)O)c1; Cha = N[C@@H](CC1CCCCC1)C(=O)O; Cit = NC(=O)NCCC[C@H](N)C(=O)O; NMeN = CN[C@@H](CC(N)=O)C(=O)O; Thr(3ξ) = CC(O)[C@H](N)C(=O)O; Carboxymethyl = O=C(O)C*; Orn = NCCC[C@H](N)C(=O)O; Aun = NCCCCCCCCCCC(=O)O; Dab = NCC[C@H](N)C(=O)O; AEEA = NCCOCCOCC(=O)O

Biological target: T1, PD-1/PD-L1 interaction (PE-labeled human PD-L1-Ig binding to Jurkat cell line over-expressing human PD-1) (Homo sapiens, UniProt Q15116)
T1 construct: expressed in transfected cells; host or cells: Jurkat
Experiment: Jurkat-PD-1 Cell Binding High-Content Screening Assay (CBA)
Assay type: cell-based
Settings: Jurkat cell line over-expressing human PD-1; PE-labeled PD-L1-Ig 20 nM final; read-out: Jurkat hPD1-PDL1 IC50
Summary of the method: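 Jurkat-hPD-1 cells, DMEM/10% FCS; cpd 2 h 37° C; PE-PD-L1-Ig 20 nM final, 1 h; 4% PFA fix + Hoechst 33342, 3× dPBS wash; high-content imaging read-out.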

T1 sequence (Q15116 25-288): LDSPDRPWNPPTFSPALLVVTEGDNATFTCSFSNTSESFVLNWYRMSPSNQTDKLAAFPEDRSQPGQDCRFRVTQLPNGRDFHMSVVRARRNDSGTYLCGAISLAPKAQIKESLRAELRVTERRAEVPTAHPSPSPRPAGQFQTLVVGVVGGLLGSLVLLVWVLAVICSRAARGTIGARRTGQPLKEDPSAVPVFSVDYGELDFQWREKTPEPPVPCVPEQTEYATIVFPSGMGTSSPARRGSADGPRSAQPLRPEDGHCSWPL

Compound | pIC50
Cc1cccc(C[C@@H]2NC(=O)[C@H](CC(=O)O)NC(=O)[C@H](Cc3ccc(OCC(=O)O)cc3)NC(=O)[C@H](C(C)O)NC(=O)CSC[C@@H](C(=O)N[C@H](CC(N)=O)C(=O)NCCCCCCCCCCC(=O)O)NC(=O)[C@H](C(C)O)NC(=O)[C@H](C(C)C)NC(=O)[C@H](CC3CCCCC3)NC(=O)[C@H](CCN)NC(=O)[C@@H](CC(C)C)NC(=O)[C@H](CCCN)NC(=O)[C@H](CCC(N)=O)NC(=O)[C@H](Cc3ccc(-c4ccccc4)cc3)NC(=O)[C@H](C(C)C)NC2=O)c1 (stereo partly drawn) [Compound 3430] ({CH2CO}-[Thr(3ξ)]Y(Carboxymethyl)D[Phe(3-Me)]V[Bip]Q[Orn][dL][Dab][Cha]V[Thr(3ξ)]C[dN][Aun]-OH; thioether N-14) | 8.12
CC(=O)NCCCC[C@@H]1NC(=O)[C@H](Cc2ccc(-c3ccccc3)cc2)NC(=O)[C@H](C(C)C)NC(=O)[C@H](Cc2cccc(C)c2)NC(=O)[C@H](CC(=O)O)NC(=O)[C@H](Cc2ccc(OCC(=O)O)cc2)NC(=O)[C@H](C(C)O)NC(=O)CSC[C@@H](C(=O)N[C@H](CC(N)=O)C(=O)NCCCCCCCCCCC(=O)O)NC(=O)[C@H](C(C)O)NC(=O)[C@H](C(C)C)NC(=O)[C@H](CC2CCCCC2)NC(=O)[C@H](CCN)NC(=O)[C@@H](CC(C)C)NC(=O)[C@H](CCCN)NC1=O (stereo partly drawn) [Compound 3431] ({CH2CO}-[Thr(3ξ)]Y(Carboxymethyl)D[Phe(3-Me)]V[Bip]K(Ac)[Orn][dL][Dab][Cha]V[Thr(3ξ)]C[dN][Aun]-OH; thioether N-14) | 8.31
Cc1cccc(C[C@@H]2NC(=O)[C@H](CC(=O)O)NC(=O)[C@H](Cc3ccc(OCC(=O)O)cc3)NC(=O)[C@H](C(C)O)NC(=O)CSC[C@@H](C(=O)N[C@H](CC(N)=O)C(=O)NCCCCCCCCCCC(=O)O)NC(=O)[C@H](CO)NC(=O)[C@H](C(C)C)NC(=O)[C@H](CC3CCCCC3)NC(=O)[C@H](CCN)NC(=O)[C@@H](CC(C)C)NC(=O)[C@H](CCCN)NC(=O)[C@H](Cc3ccc(O)cc3)NC(=O)[C@H](Cc3ccc(-c4ccccc4)cc3)NC(=O)[C@H](C(C)C)NC2=O)c1 (stereo partly drawn) [Compound 3432] ({CH2CO}-[Thr(3ξ)]Y(Carboxymethyl)D[Phe(3-Me)]V[Bip]Y[Orn][dL][Dab][Cha]VSC[dN][Aun]-OH; thioether N-14) | 7.94
CC(C)C[C@H]1NC(=O)[C@H](CCCN)NC(=O)[C@H](Cc2ccc(O)cc2)NC(=O)[C@H](Cc2ccc(-c3ccccc3)cc2)NC(=O)[C@H](Cc2ccc(O)cc2)NC(=O)[C@H](Cc2c[nH]c3ccccc23)NC(=O)[C@H](CC(=O)O)NC(=O)[C@H](Cc2ccc(OCC(=O)O)cc2)NC(=O)[C@H](C(C)O)NC(=O)CSC[C@@H](C(=O)N[C@H](CC(N)=O)C(=O)NCCCCCCCCCCC(=O)O)NC(=O)[C@H](CCC(N)=O)NC(=O)[C@H](C(C)C)NC(=O)[C@H](CC2CCCCC2)NC(=O)[C@H](CCN)NC1=O (stereo partly drawn) [Compound 3433] ({CH2CO}-[Thr(3ξ)]Y(Carboxymethyl)DWY[Bip]Y[Orn][dL][Dab][Cha]VQC[dN][Aun]-OH; thioether N-14) | 7.39
Cc1cccc(C[C@@H]2NC(=O)[C@H](CC(=O)O)NC(=O)[C@H](Cc3ccc(OCC(=O)O)cc3)NC(=O)[C@H](CCCNC(=N)N)NC(=O)CSC[C@@H](C(=O)N[C@H](CC(N)=O)C(=O)NCCCCCCCCCCC(=O)O)NC(=O)[C@H](CCC(N)=O)NC(=O)[C@H](C(C)C)NC(=O)[C@H](CC3CCCCC3)NC(=O)[C@H](CCN)NC(=O)[C@@H](CC(C)C)NC(=O)[C@H](CCCN)NC(=O)[C@H](CCCNC(N)=O)NC(=O)[C@H](Cc3ccc(-c4ccccc4)cc3)NC(=O)[C@H](C(C)C)NC2=O)c1 [Compound 3434] ({CH2CO}-RY(Carboxymethyl)D[Phe(3-Me)]V[Bip][Cit][Orn][dL][Dab][Cha]VQC[dN][Aun]-OH; thioether N-14) | 7.98
Cc1cccc(C[C@@H]2NC(=O)[C@H](CC(=O)O)NC(=O)[C@H](Cc3ccc(OCC(=O)O)cc3)NC(=O)[C@H](C(C)O)NC(=O)CSC[C@@H](C(=O)N[C@H](CCC(=O)O)C(=O)NCCCCCCCCCCC(=O)O)NC(=O)[C@H](C(C)O)NC(=O)[C@H](C(C)C)NC(=O)[C@H](CC3CCCCC3)NC(=O)[C@H](CCN)NC(=O)[C@@H](CC(C)C)NC(=O)[C@H](CCCN)NC(=O)[C@H](C(C)C)NC(=O)[C@H](Cc3ccc(-c4ccccc4)cc3)NC(=O)[C@H](Cc3ccc(O)cc3)NC2=O)c1 (stereo partly drawn) [Compound 3435] ({CH2CO}-[Thr(3ξ)]Y(Carboxymethyl)D[Phe(3-Me)]Y[Bip]V[Orn][dL][Dab][Cha]V[Thr(3ξ)]C[dE][Aun]-OH; thioether N-14) | 7.89
Cc1cccc(C[C@@H]2NC(=O)[C@H](CC(=O)O)NC(=O)[C@H](Cc3ccc(OCC(=O)O)cc3)NC(=O)[C@H](C(C)O)NC(=O)CSC[C@@H](C(=O)N[C@H](CC(N)=O)C(=O)NCCCCCCCCCCC(=O)O)NC(=O)[C@H](C(C)O)NC(=O)[C@H](C(C)C)NC(=O)[C@H](CC3CCCCC3)NC(=O)[C@H](CCN)NC(=O)[C@@H](CC(C)C)NC(=O)[C@H](CCCN)NC(=O)[C@H](C(C)C)NC(=O)[C@H](Cc3ccc(-c4ccccc4)cc3)NC(=O)[C@H](C(C)C)NC2=O)c1 (stereo partly drawn) [Compound 3436] ({CH2CO}-[Thr(3ξ)]Y(Carboxymethyl)D[Phe(3-Me)]V[Bip]V[Orn][dL][Dab][Cha]V[Thr(3ξ)]C[dN][Aun]-OH; thioether N-14) | 7.77
CC(=O)NCCCC[C@@H]1NC(=O)[C@H](Cc2ccc(-c3ccccc3)cc2)NC(=O)[C@H](C(C)C)NC(=O)[C@H](Cc2cccc(C)c2)NC(=O)[C@H](CC(=O)O)NC(=O)[C@H](Cc2ccc(OCC(=O)O)cc2)NC(=O)[C@H](C(C)O)NC(=O)CSC[C@@H](C(=O)N[C@H](CC(N)=O)C(=O)NCCCCCCCCCCC(=O)O)NC(=O)[C@H](CCC(N)=O)NC(=O)[C@H](C(C)C)NC(=O)[C@H](CC2CCCCC2)NC(=O)[C@H](CCN)NC(=O)[C@@H](CC(C)C)NC(=O)[C@H](CCCN)NC1=O (stereo partly drawn) [Compound 3437] ({CH2CO}-[Thr(3ξ)]Y(Carboxymethyl)D[Phe(3-Me)]V[Bip]K(Ac)[Orn][dL][Dab][Cha]VQC[dN][Aun]-OH; thioether N-14) | 7.95
CC(C)C[C@H]1NC(=O)[C@H](CCCN)NC(=O)[C@H](C(C)C)NC(=O)[C@H](Cc2ccc(-c3ccccc3)cc2)NC(=O)[C@H](C(C)C)NC(=O)[C@H](Cc2c[nH]c3ccccc23)NC(=O)[C@H](CC(=O)O)NC(=O)[C@H](Cc2ccc(OCC(=O)O)cc2)NC(=O)[C@H](CCCNC(=N)N)NC(=O)CSC[C@@H](C(=O)N(C)[C@@H](CC(N)=O)C(=O)NCCCCCCCCCCC(=O)O)NC(=O)[C@H](CO)NC(=O)[C@H](C(C)C)NC(=O)[C@H](CC2CCCCC2)NC(=O)[C@H](CCN)NC1=O [Compound 3438] ({CH2CO}-RY(Carboxymethyl)DWV[Bip]V[Orn][dL][Dab][Cha]VSC[NMeN][Aun]-OH; thioether N-14) | 7.18
Cc1cccc(C[C@@H]2NC(=O)[C@H](CC(=O)O)NC(=O)[C@H](Cc3ccc(OCC(=O)O)cc3)NC(=O)[C@H](C(C)O)NC(=O)CSC[C@@H](C(=O)N[C@@H](CCN)C(=O)NCCCCCCCCCCC(=O)O)NC(=O)[C@H](C(C)O)NC(=O)[C@H](C(C)C)NC(=O)[C@H](CC3CCCCC3)NC(=O)[C@H](CCN)NC(=O)[C@@H](CC(C)C)NC(=O)[C@H](CCCN)NC(=O)[C@H](CCC(=O)O)NC(=O)[C@H](Cc3ccc(-c4ccccc4)cc3)NC(=O)[C@H](C(C)C)NC2=O)c1 (stereo partly drawn) [Compound 3441] ({CH2CO}-[Thr(3ξ)]Y(Carboxymethyl)D[Phe(3-Me)]V[Bip]E[Orn][dL][Dab][Cha]V[Thr(3ξ)]C[Dab][Aun]-OH; thioether N-14) | 7.40
Cc1cccc(C[C@@H]2NC(=O)[C@H](CC(=O)O)NC(=O)[C@H](Cc3ccc(OCC(=O)O)cc3)NC(=O)[C@H](C(C)O)NC(=O)CSC[C@@H](C(=O)NCCOCCOCC(=O)NCCCCCCCCCCC(=O)O)NC(=O)[C@H](C(C)O)NC(=O)[C@H](C(C)C)NC(=O)[C@H](CC3CCCCC3)NC(=O)[C@H](CCN)NC(=O)[C@@H](CC(C)C)NC(=O)[C@H](CCN)NC(=O)[C@H](C(C)C)NC(=O)[C@H](Cc3ccc(-c4ccccc4)cc3)NC(=O)[C@H](C(C)C)NC2=O)c1 (stereo partly drawn) [Compound 3442] ({CH2CO}-[Thr(3ξ)]Y(Carboxymethyl)D[Phe(3-Me)]V[Bip]V[Dab][dL][Dab][Cha]V[Thr(3ξ)]C[AEEA][Aun]-OH; thioether N-14) | 7.79
CC(=O)NCCCC[C@@H]1NC(=O)[C@H](C(C)C)NC(=O)[C@H](CC2CCCCC2)NC(=O)[C@H](CCN)NC(=O)[C@@H](CC(C)C)NC(=O)[C@H](CCN)NC(=O)[C@H](C(C)C)NC(=O)[C@H](Cc2ccc(-c3ccccc3)cc2)NC(=O)[C@H](C(C)C)NC(=O)[C@H](Cc2cccc(C)c2)NC(=O)[C@H](CC(=O)O)NC(=O)[C@H](Cc2ccc(OCC(=O)O)cc2)NC(=O)[C@H](C(C)O)NC(=O)CSC[C@@H](C(=O)NCCOCCOCC(=O)NCCCCCCCCCCC(=O)O)NC1=O (stereo partly drawn) [Compound 3443] ({CH2CO}-[Thr(3ξ)]Y(Carboxymethyl)D[Phe(3-Me)]V[Bip]V[Dab][dL][Dab][Cha]VK(Ac)C[AEEA][Aun]-OH; thioether N-14) | 7.92
Cc1cccc(C[C@@H]2NC(=O)[C@H](CC(=O)O)NC(=O)[C@H](Cc3ccc(OCC(=O)O)cc3)NC(=O)[C@H](C(C)O)NC(=O)CSC[C@@H](C(=O)N[C@H](CC(N)=O)C(=O)NCCCCCCCCCCC(=O)O)NC(=O)[C@H](C(C)O)NC(=O)[C@H](C(C)C)NC(=O)[C@H](CC3CCCCC3)NC(=O)[C@H](CCN)NC(=O)[C@@H](CC(C)C)NC(=O)[C@H](CCCN)NC(=O)[C@H](CCCNC(N)=O)NC(=O)[C@H](Cc3ccc(-c4ccccc4)cc3)NC(=O)[C@H](C(C)C)NC2=O)c1 (stereo partly drawn) [Compound 3444] ({CH2CO}-[Thr(3ξ)]Y(Carboxymethyl)D[Phe(3-Me)]V[Bip][Cit][Orn][dL][Dab][Cha]V[Thr(3ξ)]C[dN][Aun]-OH; thioether N-14) | 7.87
